In PubChem BioAssay AID1963964 (Molecular Pharmacology Branch, DTP, NCI, 2024):
Each block holds one compound with its values, some of them ahead of it.

System: 997726-040-R-J2-PDC tumor spheroids, viability
Test: Anticancer human tumor 997726-040-R-J2-PDC patient-derived squamous cell lung carcinoma cell line growth inhibition [PI3K]
Conditions: spheroids with HUVEC and MSC; for IC50: curve of first compound; for viability, T/C: stronger effect = lower value
In short: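 Agents were dosed from a top concentration near clinical Cmax (otherwise 10 microM) in half-log decrements, alone or combined with PI3K inhibitors. The spheroids contain tumor cells plus endothelial (HUVEC) and MSC stroma; viability is measured.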

[1] = second compound 0.0316 µM, first compound 0.0316 µM
[2] = second compound 0.0316 µM, first compound 0.1 µM
[3] = second compound 0.0316 µM, first compound 0.316 µM
[4] = second compound 0.0316 µM, first compound 1 µM
[5] = second compound 0.0316 µM, first compound 3.16 µM
[6] = second compound 0.0316 µM, first compound 10 µM
[7] = second compound 0.1 µM, first compound 0.0316 µM
[8] = second compound 0.1 µM, first compound 0.1 µM
[9] = second compound 0.1 µM, first compound 0.316 µM
[10] = second compound 0.1 µM, first compound 1 µM
[11] = second compound 0.1 µM, first compound 3.16 µM
[12] = second compound 0.1 µM, first compound 10 µM
[13] = second compound 0.316 µM, first compound 0.0316 µM
[14] = second compound 0.316 µM, first compound 0.1 µM
[15] = second compound 0.316 µM, first compound 0.316 µM
[16] = second compound 0.316 µM, first compound 1 µM
[17] = second compound 0.316 µM, first compound 3.16 µM
[18] = second compound 0.316 µM, first compound 10 µM
[19] = second compound 1 µM, first compound 0.0316 µM
[20] = second compound 1 µM, first compound 0.1 µM
[21] = second compound 1 µM, first compound 0.316 µM
[22] = second compound 1 µM, first compound 1 µM
[23] = second compound 1 µM, first compound 3.16 µM
[24] = second compound 1 µM, first compound 10 µM
[25] = second compound 3.16 µM, first compound 0.0316 µM
[26] = second compound 3.16 µM, first compound 0.1 µM
[27] = second compound 3.16 µM, first compound 0.316 µM
[28] = second compound 3.16 µM, first compound 1 µM
[29] = second compound 3.16 µM, first compound 3.16 µM
[30] = second compound 3.16 µM, first compound 10 µM
[31] = second compound 10 µM, first compound 0.0316 µM
[32] = second compound 10 µM, first compound 0.1 µM
[33] = second compound 10 µM, first compound 0.316 µM
[34] = second compound 10 µM, first compound 1 µM
[35] = second compound 10 µM, first compound 3.16 µM
[36] = second compound 10 µM, first compound 10 µM
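Further: spheroids exposed to compounds for seven days before readout.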

SMILES: C=CC(=O)N1CCN(c2nc(=O)n(-c3c(C)ccnc3C(C)C)c3nc(-c4c(O)cccc4F)c(F)cc23)C(C)C1 (stereo not given) + CC(Nc1ncnc2nc[nH]c12)c1cc2cccc(Cl)c2c(=O)n1-c1ccccc1
IC50 (second compound 0.0316 µM): > 10 µM
IC50 (second compound 0.1 µM): > 10 µM
IC50 (second compound 0.316 µM): > 10 µM
IC50 (second compound 1 µM): > 10 µM
IC50 (second compound 3.16 µM): > 10 µM
IC50 (second compound 10 µM): > 10 µM
viability, T/C [1]: 91.5%
viability, T/C [2]: 112%
viability, T/C [3]: 107%
viability, T/C [4]: 106%
viability, T/C [5]: 123%
viability, T/C [6]: 130%
viability, T/C [7]: 108%
viability, T/C [8]: 103%
viability, T/C [9]: 101%
viability, T/C [10]: 104%
viability, T/C [11]: 113%
viability, T/C [12]: 126%
viability, T/C [13]: 104%
viability, T/C [14]: 95%
viability, T/C [15]: 104%
viability, T/C [16]: 102%
viability, T/C [17]: 133%
viability, T/C [18]: 113%
viability, T/C [19]: 86.7%
viability, T/C [20]: 86.4%
viability, T/C [21]: 92.7%
viability, T/C [22]: 98.4%
viability, T/C [23]: 120%
viability, T/C [24]: 109%
viability, T/C [25]: 72.2%
viability, T/C [26]: 75.4%
viability, T/C [27]: 78.9%
viability, T/C [28]: 85.3%
viability, T/C [29]: 96.2%
viability, T/C [30]: 95.6%
viability, T/C [31]: 58.1%
viability, T/C [32]: 51%
viability, T/C [33]: 60.8%
viability, T/C [34]: 55.8%
viability, T/C [35]: 64.7%
viability, T/C [36]: 68.8%

SMILES: Cn1ncc(Cl)c1-c1cc(C(=O)NC(CN)Cc2cccc(F)c2)sc1Cl (stereo not given) + CC(Nc1ncnc2nc[nH]c12)c1cc2cccc(Cl)c2c(=O)n1-c1ccccc1
IC50 (second compound 0.0316 µM): 0.112 µM
IC50 (second compound 0.1 µM): 0.118 µM
IC50 (second compound 0.316 µM): 0.113 µM
IC50 (second compound 1 µM): 0.128 µM
IC50 (second compound 3.16 µM): 0.0769 µM
IC50 (second compound 10 µM): 0.0363 µM
viability, T/C [1]: 79.2%
viability, T/C [2]: 52.6%
viability, T/C [3]: 26.7%
viability, T/C [4]: 16.1%
viability, T/C [5]: 9.99%
viability, T/C [6]: 12.3%
viability, T/C [7]: 71.1%
viability, T/C [8]: 52.8%
viability, T/C [9]: 30.5%
viability, T/C [10]: 14.9%
viability, T/C [11]: 10.7%
viability, T/C [12]: 12.4%
viability, T/C [13]: 78.2%
viability, T/C [14]: 52.8%
viability, T/C [15]: 26.3%
viability, T/C [16]: 16%
viability, T/C [17]: 11.8%
viability, T/C [18]: 13.8%
viability, T/C [19]: 72.7%
viability, T/C [20]: 56.5%
viability, T/C [21]: 26.7%
viability, T/C [22]: 16.8%
viability, T/C [23]: 12.7%
viability, T/C [24]: 12.7%
viability, T/C [25]: 66.1%
viability, T/C [26]: 44.6%
viability, T/C [27]: 27.8%
viability, T/C [28]: 15.2%
viability, T/C [29]: 12.2%
viability, T/C [30]: 12.8%
viability, T/C [31]: 51.5%
viability, T/C [32]: 38.8%
viability, T/C [33]: 21.2%
viability, T/C [34]: 13.3%
viability, T/C [35]: 10%
viability, T/C [36]: 9.74%

Now from value to compound, other results behind:

IC50 (second compound 0.0316 µM): > 10 µM
IC50 (second compound 0.1 µM): > 10 µM
IC50 (second compound 0.316 µM): > 10 µM
IC50 (second compound 1 µM): > 10 µM
IC50 (second compound 3.16 µM): > 10 µM
IC50 (second compound 10 µM): < 0.0316 µM
SMILES: C#Cc1c(F)ccc2cc(O)cc(-c3ncc4c(N5CC6CCC(C5)N6)nc(OCC56CCCN5CC(F)C6)nc4c3F)c12 (stereo not given) + CC(Nc1ncnc2nc[nH]c12)c1cc2cccc(Cl)c2c(=O)n1-c1ccccc1
viability, T/C [1]: 90.6%
viability, T/C [2]: 99.3%
viability, T/C [3]: 101%
viability, T/C [4]: 85.7%
viability, T/C [5]: 88.1%
viability, T/C [6]: 96%
viability, T/C [7]: 101%
viability, T/C [8]: 96.5%
viability, T/C [9]: 83.3%
viability, T/C [10]: 97.6%
viability, T/C [11]: 82.1%
viability, T/C [12]: 73.3%
viability, T/C [13]: 97.1%
viability, T/C [14]: 103%
viability, T/C [15]: 98%
viability, T/C [16]: 94%
viability, T/C [17]: 95.7%
viability, T/C [18]: 61.5%
viability, T/C [19]: 87.3%
viability, T/C [20]: 93.8%
viability, T/C [21]: 82.7%
viability, T/C [22]: 84.6%
viability, T/C [23]: 79.9%
viability, T/C [24]: 63.5%
viability, T/C [25]: 71.6%
viability, T/C [26]: 68.3%
viability, T/C [27]: 61.4%
viability, T/C [28]: 72.3%
viability, T/C [29]: 65.3%
viability, T/C [30]: 57.7%
viability, T/C [31]: 49.1%
viability, T/C [32]: 50.1%
viability, T/C [33]: 45.3%
viability, T/C [34]: 45.5%
viability, T/C [35]: 39.1%
viability, T/C [36]: 35.1%

IC50 (second compound 0.0316 µM): > 10 µM
IC50 (second compound 0.1 µM): > 10 µM
IC50 (second compound 0.316 µM): > 10 µM
IC50 (second compound 1 µM): > 10 µM
IC50 (second compound 3.16 µM): > 10 µM
IC50 (second compound 10 µM): > 10 µM
SMILES: CC(Cn1ccc(-c2ccc(C#N)c(Cl)c2)n1)NC(=O)c1cc(C(C)O)[nH]n1 (stereo not given) + CC(Nc1ncnc2nc[nH]c12)c1cc2cccc(Cl)c2c(=O)n1-c1ccccc1
viability, T/C [1]: 100%
viability, T/C [2]: 88.5%
viability, T/C [3]: 104%
viability, T/C [4]: 109%
viability, T/C [5]: 100%
viability, T/C [6]: 105%
viability, T/C [7]: 108%
viability, T/C [8]: 100%
viability, T/C [9]: 109%
viability, T/C [10]: 96.4%
viability, T/C [11]: 116%
viability, T/C [12]: 108%
viability, T/C [13]: 94.3%
viability, T/C [14]: 92.1%
viability, T/C [15]: 95.1%
viability, T/C [16]: 92.6%
viability, T/C [17]: 101%
viability, T/C [18]: 98.2%
viability, T/C [19]: 93.9%
viability, T/C [20]: 88.4%
viability, T/C [21]: 91.6%
viability, T/C [22]: 87.2%
viability, T/C [23]: 91.5%
viability, T/C [24]: 88.2%
viability, T/C [25]: 78.1%
viability, T/C [26]: 70.5%
viability, T/C [27]: 71.2%
viability, T/C [28]: 68.9%
viability, T/C [29]: 80.9%
viability, T/C [30]: 72.5%
viability, T/C [31]: 51.5%
viability, T/C [32]: 56.2%
viability, T/C [33]: 48.9%
viability, T/C [34]: 53.7%
viability, T/C [35]: 51.5%
viability, T/C [36]: 52.8%

IC50 (second compound 0.0316 µM): > 10 µM
IC50 (second compound 0.1 µM): > 10 µM
IC50 (second compound 0.316 µM): > 10 µM
IC50 (second compound 1 µM): > 10 µM
IC50 (second compound 3.16 µM): > 10 µM
IC50 (second compound 10 µM): 0.0708 µM
SMILES: Cn1nccc1Nc1nccc(-c2ccn(C(CO)c3ccc(Cl)c(F)c3)c(=O)c2)n1 (stereo not given) + CC(Nc1ncnc2nc[nH]c12)c1cc2cccc(Cl)c2c(=O)n1-c1ccccc1
viability, T/C [1]: 93.3%
viability, T/C [2]: 81.7%
viability, T/C [3]: 77.2%
viability, T/C [4]: 69.3%
viability, T/C [5]: 64.2%
viability, T/C [6]: 59.5%
viability, T/C [7]: 91.6%
viability, T/C [8]: 90.1%
viability, T/C [9]: 73.9%
viability, T/C [10]: 69.4%
viability, T/C [11]: 62.5%
viability, T/C [12]: 61.8%
viability, T/C [13]: 89.6%
viability, T/C [14]: 93.7%
viability, T/C [15]: 74%
viability, T/C [16]: 57.2%
viability, T/C [17]: 64.3%
viability, T/C [18]: 62.4%
viability, T/C [19]: 96.5%
viability, T/C [20]: 77.6%
viability, T/C [21]: 74.2%
viability, T/C [22]: 67.6%
viability, T/C [23]: 58.8%
viability, T/C [24]: 60.2%
viability, T/C [25]: 73.9%
viability, T/C [26]: 62.7%
viability, T/C [27]: 61.6%
viability, T/C [28]: 55.6%
viability, T/C [29]: 57.8%
viability, T/C [30]: 48.2%
viability, T/C [31]: 56.2%
viability, T/C [32]: 47.6%
viability, T/C [33]: 37.2%
viability, T/C [34]: 43.6%
viability, T/C [35]: 40.4%
viability, T/C [36]: 31.1%
